Laboratory results from ChEMBL document CHEMBL1201862, “PubChem BioAssay data set” (2004).
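Where inhibition never reached the appropriate level, the endpoint shown equals the highest concentration tested. Otherwise, values were interpolated linearly from a five-concentration, 48-hour dose response in 96-well plates. At the GI50, growth is halved.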 Calls of active or inactive are those of the source. Cut-off read from the data, not from the text of the source: active = GI50 up to about 1.1 µM and inactive = higher.

How the values were obtained:
Assay in all cases: DTP human tumour cell line panel, 48 h
SNB-75 = system: SNB-75
786-0 = system: 786-0
SF-268 = system: SF-268
SR = system: SR
TK-10 = system: TK-10
SK-MEL-2 = system: SK-MEL-2
EKVX = system: EKVX
UO-31 = system: UO-31
RXF 393 = system: RXF 393
K562 = system: K562
HOP-92 = system: HOP-92
Malme-3M = system: Malme-3M
HCT-15 = system: HCT-15
IGROV-1 = system: IGROV-1
M14 = system: M14
NCI-H226 = system: NCI-H226
RPMI-8226 = system: RPMI-8226
NCI-H460 = system: NCI-H460
HCC 2998 = system: HCC 2998
SF-539 = system: SF-539

| Structure (SMILES) | GI50 (SNB-75) | GI50 (786-0) | GI50 (SF-268) | GI50 (SR) | GI50 (TK-10) | GI50 (SK-MEL-2) | GI50 (EKVX) | GI50 (UO-31) | GI50 (RXF 393) | GI50 (K562) | GI50 (HOP-92) | GI50 (Malme-3M) | GI50 (HCT-15) | GI50 (IGROV-1) | GI50 (M14) | GI50 (NCI-H226) | GI50 (RPMI-8226) | GI50 (NCI-H460) | GI50 (HCC 2998) | GI50 (SF-539) |
| --- | --- | --- | --- | --- | --- | --- | --- | --- | --- | --- | --- | --- | --- | --- | --- | --- | --- | --- | --- | --- |
| O=C1c2ccccc2C(=O)c2c(Nc3cc4c5c(ccc6c7ccc8c9c(cc(Nc%10cccc%11c%10C(=O)c%10ccccc%10C%11=O)c(c3c56)c97)-c3ccccc3C8=O)C(=O)c3ccccc3-4)cccc21 | 17.6 µM (inactive) | 29.2 µM (inactive) | 18.8 µM (inactive) | 43.7 µM (inactive) | 29.9 µM (inactive) | 53.6 µM (inactive) | 40.6 µM (inactive) | 84.5 µM (inactive) | 60.3 µM (inactive) | 75 µM (inactive) | 41.8 µM (inactive) | > 100 µM (inactive) | > 100 µM | 24.6 µM (inactive) | > 100 µM (inactive) | > 100 µM (inactive) | > 100 µM (inactive) | – | – | – |
| C=C1CC(Cn2cc(C)c(=O)[nH]c2=O)(c2ccc(-c3ccccc3)cc2)OC1=O (stereo unspecified) | 7.87 µM (inactive) | 0.817 µM (active) | 2.26 µM (inactive) | 0.82 µM (active) | 1.4 µM (inactive) | 1.94 µM (inactive) | 6.62 µM (inactive) | 5.32 µM (inactive) | – | 0.296 µM (active) | 1.95 µM (inactive) | 2.11 µM (inactive) | 1.69 µM | 1.82 µM (inactive) | 1.1 µM (active) | 14.3 µM (inactive) | 0.385 µM (active) | 6.95 µM (inactive) | 1.86 µM (inactive) | 2.07 µM (inactive) |
| Cn1c(=O)c2c(nc3n2C(CCl)CO3)n(C)c1=O (stereo unspecified) | > 100 µM (inactive) | > 100 µM (inactive) | > 100 µM (inactive) | > 100 µM (inactive) | > 100 µM (inactive) | > 100 µM (inactive) | > 100 µM (inactive) | > 100 µM (inactive) | – | > 100 µM (inactive) | > 100 µM (inactive) | > 100 µM (inactive) | > 100 µM | > 100 µM (inactive) | > 100 µM (inactive) | > 100 µM (inactive) | > 100 µM (inactive) | > 100 µM (inactive) | > 100 µM (inactive) | > 100 µM (inactive) |
| CNC(=S)N(C)C(=S)Nn1c(=O)c(C)nn(C)c1=S | > 100 µM (inactive) | > 100 µM (inactive) | > 100 µM (inactive) | > 100 µM (inactive) | – | – | > 100 µM (inactive) | – | > 100 µM (inactive) | > 100 µM (inactive) | > 100 µM (inactive) | – | > 100 µM | > 100 µM (inactive) | > 100 µM (inactive) | > 100 µM (inactive) | > 100 µM (inactive) | > 100 µM (inactive) | – | > 100 µM (inactive) |
| COc1ccccc1CNCc1nc2ccccc2[nH]1 | > 100 µM (inactive) | > 100 µM (inactive) | > 100 µM (inactive) | > 100 µM (inactive) | > 100 µM (inactive) | > 100 µM (inactive) | 92.9 µM (inactive) | > 100 µM (inactive) | > 100 µM (inactive) | > 100 µM (inactive) | > 100 µM (inactive) | – | > 100 µM | > 100 µM (inactive) | > 100 µM (inactive) | > 100 µM (inactive) | > 100 µM (inactive) | > 100 µM (inactive) | > 100 µM (inactive) | > 100 µM (inactive) |
| C=C1CC2CCCC12C=O (stereo unspecified) | > 10 µM (inactive) | > 10 µM (inactive) | > 10 µM (inactive) | > 10 µM (inactive) | > 10 µM (inactive) | – | – | – | – | > 10 µM (inactive) | > 10 µM (inactive) | > 10 µM (inactive) | > 10 µM | > 10 µM (inactive) | > 10 µM (inactive) | – | > 10 µM (inactive) | – | > 10 µM (inactive) | > 10 µM (inactive) |
| Cc1ccc(S(=O)(=O)N(CCN)c2cc3c4c(c2)Oc2cccc5c2C4c2c(cccc2O3)O5)cc1 | 12.6 µM (inactive) | 16.6 µM (inactive) | 14.4 µM (inactive) | 0.724 µM (active) | 48.9 µM (inactive) | 22.8 µM (inactive) | 13.6 µM (inactive) | > 100 µM (inactive) | – | 30 µM (inactive) | 0.9 µM (active) | 10.5 µM (inactive) | 81.1 µM | 11 µM (inactive) | 25.6 µM (inactive) | 12.4 µM (inactive) | 30.8 µM (inactive) | > 100 µM (inactive) | > 100 µM (inactive) | 18.8 µM (inactive) |
| CCCC1CCC(=C2C(=O)CCC2=O)O1 (stereo unspecified) | 4.91 µM (inactive) | > 100 µM (inactive) | > 100 µM (inactive) | > 100 µM (inactive) | > 100 µM (inactive) | > 100 µM (inactive) | > 100 µM (inactive) | > 100 µM (inactive) | > 100 µM (inactive) | > 100 µM (inactive) | > 100 µM (inactive) | – | > 100 µM | > 100 µM (inactive) | > 100 µM (inactive) | > 100 µM (inactive) | > 100 µM (inactive) | > 100 µM (inactive) | > 100 µM (inactive) | > 100 µM (inactive) |
